Assay results: PMC4884932, “Selective brain penetrable Nurr1 transactivator for treating Parkinson's disease” (Oncotarget, 2016)

Experiments:
[1] = Plasma protein binding by equilibrium dialysis, human plasma; type: in vitro ADME; conditions: K3EDTA control plasma, 37°C, read-out: plasma protein binding, bound (converted)
Experimental: SD male rats were grouped into four groups: vehicle, 1mg/kg/day, 3mg/kg/day and 10mg/kg/day. Rats were treated with the designated dose by daily gavage. Acute plasma PK was conducted on day one and acute-on-chronic plasma PK was conducted on day 24. Pharmacokinetic assessment was conducted by collecting of blood at baseline (prior gavage), 0.25, 0.5, 1, 2, 4, 8, 12 and 24h post gavage. […] The spiked plasma was dialyzed at 37°C against an isotonic sodium phosphate buffer to achieve equilibrium. At the end of dialysis, the plasma and buffer level of IRX4204 were quantified by LC/MS/MS.

[2] = test system: tyrosine hydroxylase (TH)-positive DA neurons; experiment: DA neuron survival in primary ventral midbrain (VMB) culture; type: cell-based, mouse; conditions: primary VMB neurons, dose-dependent
Experimental: Ventral midbrain (VMB) from E13.5-14.5 C57BL/6 mouse embryos were dissected, triturated and plated on poly-D-lysine coated 12 well plates or glass coverslips with the serum-free chemically-defined Neurobasal medium, supplemented with 2% B27, 0.5mM L-glutamine, 50I.U./ml penicillin and 50μg/ml streptomycin (Gibco-BRL). […] For each time point, cells were washed once with phosphate buffered saline and fixed with 4% paraformaldehyde for TH immunofluorescent staining. For cell counting, 10 frames were randomly captured from each well using a Leica fluorescent microscope and a minimum of four replicates for each dose and each time point were analyzed for each experiment.

[3] = target: LXRα (Homo sapiens, UniProt Q13133); experiment: Receptor transactivation assay, LXRα (CV-1 cells); type: cell-based; conditions: at physiological concentrations
Source text: For PPARγ: CV-1 cells were transfected with 3x(rAOX/DR1)-tk-Luc reporter gene and an expression vector for PPARγ; for FXR: CV-1 cells were transfected with 3x(IBABP/IR1)-tk-Luc reporter gene and vectors for FXR and RXRα; for LXR: CV-1 cells were transfected with 3x(PLTP/LXRE)-tk-Luc reporter gene with vectors for LXRα or LXRβ. […] Luciferase data were normalized to co-transfected β-gal activity. Luciferase activity is expressed as percent of maximal activity obtained using specific agonists 9-cis-retinoic acid (RXR), retinoic acid (RAR), rosiglitazone (PPARγ), GW4064 (FXR), T0901317 (LXR).

[4] = test system: 6-OHDA lesioned rats; experiment: DAT and TH content in the striatum by Western blot, 6-OHDA lesioned rats; type: in vivo, rat; conditions: 10mg/kg/day gavage for three weeks
Experimental: (§1) All surgical procedures were performed under general anesthesia with ketamine/xylazine. 2μl 6-OHDA (20 mg/ml in 0.02% ascorbic acid) was stereotaxically injected into the right striatum of male SD rats. Lesion coordinates were set according to bregma and dura in mm: ML-3.7; AP-1.0; DV-5.5. The injection rate was 2μl/5 min and the injecting needle was left for 2 minutes after injection to avoid back flow. Apomorphine-induced rotations (see below) were assessed three days post-lesion and rats with ≥ 30 full contralateral rotation/30 minutes were included in the study.
(§2) Rats were randomly grouped into vehicle control group (n = 11) and drug treatment group (n = 10). […] The control group received DMSO/corn oil (vehicle). The treatment continued for three weeks.
Striatum samples were homogenized and boiled in SDS-PAGE sample buffer and separated onto 10% Tris-glycine gels. Western blotting was performed using anti-TH or anti-DAT (Millipore, Billerica, MA), as primary antibodies and enhanced chemiluminescence signals were quantified and normalized with β-actin.

[5] = test system: 6-OHDA lesioned rats; experiment: Dopamine and metabolites in the striatum by HPLC, 6-OHDA lesioned rats; type: in vivo, rat; conditions: 10mg/kg/day gavage for three weeks, p < 0.01
Experimental: as §1
Rats were randomly grouped into vehicle control group (n = 11) and drug treatment group (n = 10). […] The control group received DMSO/corn oil (vehicle). […]
The left and right striatum were isolated and homogenized with artificial cerebrospinal fluid and centrifuged at x10,000 g for 15 minutes. Protein content of the supernatant was measured by Bradford assay (Bio-Rad). Dopamine, HVA and DOPAC were measured using an isocratic HPLC system with electrochemical detection, consisting of a pump (ESA model 582 [ESA Chelmsford, MA]), automatic injector (ESA model 542 Autosampler), and a Coulochem III detector (ESA) in conjunction with a guard cell (ESA model 5020) and an analytical cell (ESA model 5014B). […] Data were collected and analyzed using the EZStart software (Agilent Technologies, Santa Clara, CA). […]

[6] = test system: 6-OHDA lesioned rats; experiment: Apomorphine-induced rotations in 6-OHDA lesioned rat model of PD; type: in vivo; conditions: 10mg/kg/day gavage for three weeks, day 24 post-lesion
Experimental: as §1, §2
Apomorphine (APO)-induced rotations were performed as described by Fisher et al.. Briefly, immediately after apomorphine injection (0.5 mg/kg body weight), animals were placed in an open area. A camera monitored the animal behavior and computerized software analyzed the number of contralateral and ipsilateral rotations in 30 minutes testing. Rotations were assessed three days post-lesion and after three weeks of treatment (24 days post-lesion). Data were expressed as average contralateral turns per minute.

Chain of LXRα (P19793 whole entry): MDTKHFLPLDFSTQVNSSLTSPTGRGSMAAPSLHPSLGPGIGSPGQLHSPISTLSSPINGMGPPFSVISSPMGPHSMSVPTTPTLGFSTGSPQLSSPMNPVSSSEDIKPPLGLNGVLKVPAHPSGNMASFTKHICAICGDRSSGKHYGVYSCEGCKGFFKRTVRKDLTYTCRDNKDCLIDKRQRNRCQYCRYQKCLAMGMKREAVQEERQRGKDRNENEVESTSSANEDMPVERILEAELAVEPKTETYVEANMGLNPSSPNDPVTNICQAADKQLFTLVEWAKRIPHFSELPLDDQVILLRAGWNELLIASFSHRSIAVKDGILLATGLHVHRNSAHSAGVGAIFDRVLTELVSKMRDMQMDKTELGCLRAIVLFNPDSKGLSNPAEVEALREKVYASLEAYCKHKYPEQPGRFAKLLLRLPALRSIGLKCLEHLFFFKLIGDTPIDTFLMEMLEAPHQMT
Chain of LXRα (Q13133 whole entry): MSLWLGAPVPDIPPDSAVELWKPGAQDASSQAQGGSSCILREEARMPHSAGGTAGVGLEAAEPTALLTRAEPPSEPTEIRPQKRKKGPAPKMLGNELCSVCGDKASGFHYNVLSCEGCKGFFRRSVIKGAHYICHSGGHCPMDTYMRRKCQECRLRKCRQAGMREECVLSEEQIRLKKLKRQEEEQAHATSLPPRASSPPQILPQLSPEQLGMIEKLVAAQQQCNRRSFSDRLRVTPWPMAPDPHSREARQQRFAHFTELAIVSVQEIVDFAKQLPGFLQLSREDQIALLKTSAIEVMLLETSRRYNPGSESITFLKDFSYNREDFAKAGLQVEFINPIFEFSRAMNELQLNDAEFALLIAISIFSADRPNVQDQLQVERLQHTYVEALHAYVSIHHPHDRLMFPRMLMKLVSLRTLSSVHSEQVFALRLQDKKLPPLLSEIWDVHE

fraction unbound at 1 ug/ml [1]: 0.0064
activation of RXR heterodimer of LXRα [3]: does not activate
Compound: CC(/C=C/[C@@H]1C[C@]1(C)c1ccc2c(c1)C(C)(C)CCC2(C)C)=C\C(=O)O [IRX4204]
survival of TH-positive DA neurons [2]: increased survival
DAT content in the lesioned striatum versus non-lesioned side [4]: almost identical to those in the non-lesioned side
TH content in the lesioned striatum versus non-lesioned side [4]: almost identical to those in the non-lesioned side
striatal dopamine loss in the lesioned side [5]: much greater in the vehicle-treated group relative to the IRX4204 group
APO-induced contralateral rotations versus baseline [6]: did not differ significantly from baseline
